Source: ChEMBL document CHEMBL3272336, “Potential histidine decarboxylase inhibitors. 1. alpha- and beta-substituted histidine analogues” (J Med Chem, 1977)
Calls of active or inactive are those of the source. The rule behind the calls is not given here.

Key:
[1] = target: T1, Histidine decarboxylase (Rattus norvegicus) (UniProt P16453); experiment: Inhibition of histidine decarboxylase in rat pyloric stomach using [carboxyl-14C]-histidine as substrate at 10^-4 M by 14CO2 trapping assay relative to control; type: tissue-based
T1 sequence (whole entry): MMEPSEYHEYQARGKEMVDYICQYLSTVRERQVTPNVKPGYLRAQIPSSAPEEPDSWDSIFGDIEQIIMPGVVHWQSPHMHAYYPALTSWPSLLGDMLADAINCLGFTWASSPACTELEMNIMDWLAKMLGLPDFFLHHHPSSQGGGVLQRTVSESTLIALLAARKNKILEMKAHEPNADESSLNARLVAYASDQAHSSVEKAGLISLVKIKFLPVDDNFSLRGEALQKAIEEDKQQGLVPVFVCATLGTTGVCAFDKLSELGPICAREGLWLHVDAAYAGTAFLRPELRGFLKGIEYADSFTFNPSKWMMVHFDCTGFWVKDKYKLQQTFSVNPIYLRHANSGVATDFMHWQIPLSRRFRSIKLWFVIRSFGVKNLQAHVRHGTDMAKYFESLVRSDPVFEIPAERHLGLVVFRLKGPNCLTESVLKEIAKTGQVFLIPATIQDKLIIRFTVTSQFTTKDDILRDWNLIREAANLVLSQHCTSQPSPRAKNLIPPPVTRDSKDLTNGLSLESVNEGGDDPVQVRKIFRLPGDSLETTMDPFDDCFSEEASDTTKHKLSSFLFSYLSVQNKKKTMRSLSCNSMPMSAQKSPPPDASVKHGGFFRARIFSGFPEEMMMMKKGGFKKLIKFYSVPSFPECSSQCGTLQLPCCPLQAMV

[2] = target: T1, Histidine decarboxylase (Rattus norvegicus); experiment: Inhibition of histidine decarboxylase in rat pyloric stomach using [carboxyl-14C]-histidine as substrate at 10^-3 M by 14CO2 trapping assay relative to control; type: tissue-based

Row | Compound | inhibition [1] | inhibition [2] [%]
1 | C[C@](N)(Cc1c[nH]cn1)C(=O)O | 30% | 40
2 | NC(CCc1c[nH]cn1)C(=O)O (configuration not stated) | – | 0
3 | CC(C)(c1c[nH]cn1)[C@H](N)C(=O)O | – | 0
4 | CC(c1c[nH]cn1)[C@H](N)C(=O)O (some centres not stated) | inactive | –
5 | CCCC[C@](N)(Cc1c[nH]cn1)C(=O)O | – | 0
6 | N[C@@]1(Cc2c[nH]cn2)CCOC1=O | 12% | 19
7 | CC(C)[C@](N)(Cc1c[nH]cn1)C(=O)O | 0% | 1
8 | CC[C@](N)(Cc1c[nH]cn1)C(=O)O | 6% | 14
